In the NIST ThermoML archive (doi:10.1021/je100522z):
Where “and” joins values, the source holds several entries; their conditions need not be identical. Equal entries are not always repeated. ± gives the expanded uncertainty stated by the source.

Experiments:
[1] = 101.33 kPa, Liquid
[2] = molar heat capacity at constant pressure; details: 101.33 kPa, Liquid, Small sample (50 mg) DSC
[3] = excess molar enthalpy (molar enthalpy of mixing); xn = mol fraction of the nth substance listed; details: 101.3 kPa, Liquid, Calvet calorimetry

CCCC[P+](CC)(CCCC)CCCC.CCOP(=O)([O-])OCC [tributylethylphosphonium diethylphosphate]
Details	mass density, [1] [kg/m3]	molar heat capacity at constant pressure, [2] [J/K/mol]
283.15 K	–	683 ± 55
293.15 K	1010.74 ± 0.48	706 ± 57
298.15 K	1007.43 ± 0.47	–
303.15 K	1004.1 ± 0.5	716 ± 58
313.15 K	997.42 ± 0.45	728 ± 59
323.15 K	990.87 ± 0.47	739 ± 60
333.15 K	984.33 ± 0.49	753 ± 61
343.15 K	977.79 ± 0.51	768 ± 62

CCn1cc[n+](C)c1.N#C[S-] [1-ethyl-3-methylimidazolium thiocyanate] + O
[3]
Details	excess molar enthalpy [kcal/mol]
313.14 K, x2 = 0.1503	-0.059 ± 0.00239
313.14 K, x2 = 0.2483	-0.0865 ± 0.00359
313.14 K, x2 = 0.2501	-0.0868 ± 0.00359
313.14 K, x2 = 0.498	-0.101 ± 0.00406
313.14 K, x2 = 0.4996	-0.101 ± 0.00406
313.14 K, x2 = 0.7488	-0.0261 ± 0.0012
313.14 K, x2 = 0.7493	-0.0258 ± 0.0012
313.14 K, x2 = 0.8994	0.0433 ± 0.00191
313.14 K, x2 = 0.8996	0.043 ± 0.00167
333.14 K, x2 = 0.1477	-0.0614 ± 0.00263
333.14 K, x2 = 0.1479	-0.0609 ± 0.00263
333.14 K, x2 = 0.25	-0.0887 ± 0.00359
333.14 K, x2 = 0.2506	-0.0889 ± 0.00359
333.14 K, x2 = 0.5014	-0.0939 ± 0.00382
333.14 K, x2 = 0.5016	-0.0942 ± 0.00382
333.14 K, x2 = 0.6521	-0.0483 ± 0.00191
333.14 K, x2 = 0.6524	-0.0483 ± 0.00191
333.14 K, x2 = 0.8965	0.0619 ± 0.00263
333.14 K, x2 = 0.898	0.0621 ± 0.00263
348.13 K, x2 = 0.1467	-0.0629 ± 0.00263
348.13 K, x2 = 0.1516	-0.0652 ± 0.00263
348.13 K, x2 = 0.2472	-0.0884 ± 0.00359
348.13 K, x2 = 0.251	-0.0877 ± 0.00359
348.13 K, x2 = 0.499	-0.087 ± 0.00359
348.13 K, x2 = 0.4992	-0.0868 ± 0.00359
348.13 K, x2 = 0.6015	-0.0552 ± 0.00239
348.13 K, x2 = 0.6029	-0.0545 ± 0.00215
348.13 K, x2 = 0.8992	0.082 ± 0.00335
348.13 K, x2 = 0.8993	0.082 ± 0.00335

CCn1cc[n+](C)c1.COS(=O)(=O)[O-] [1-ethyl-3-methylimidazolium methylsulfate]
Details	mass density, [1] [kg/m3]	molar heat capacity at constant pressure, [2] [J/K/mol]
283.15 K	–	324 ± 26
293.15 K	1291.15 ± 1.5	330 ± 27
298.15 K	1287.75 ± 1.5	–
303.15 K	1284.37 ± 1.5	332 ± 27
313.15 K	1277.61 ± 1.5	337 ± 27
323.15 K	1270.87 ± 1.4	343 ± 28
333.15 K	1264.22 ± 1.4	347 ± 28
343.15 K	1257.72 ± 1.4	354 ± 29

CCn1cc[n+](C)c1.CS(=O)(=O)[O-] [1-ethyl-3-methylimidazolium methanesulfonate]
Details	mass density, [1] [kg/m3]	molar heat capacity at constant pressure, [2] [J/K/mol]
283.15 K	–	327 ± 27
293.15 K	1247.31 ± 1.3	327 ± 27
298.15 K	1243.83 ± 1.3	–
303.15 K	1240.45 ± 1.3	330 ± 27
313.15 K	1233.48 ± 1.3	334 ± 27
323.15 K	1227.03 ± 1.3	339 ± 28
333.15 K	1220.33 ± 1.2	344 ± 28
343.15 K	1213.79 ± 1.2	350 ± 28

CCOP(=O)([O-])OCC.CCn1cc[n+](C)c1 [1-ethyl-3-methylimidazolium diethyl phosphate]
Details	mass density, [1] [kg/m3]	molar heat capacity at constant pressure, [2] [J/K/mol]
283.15 K	–	517 ± 42
293.15 K	1148.92 ± 0.98	528 ± 43
298.15 K	1145.47 ± 0.97	–
303.15 K	1142.03 ± 0.96	533 ± 43
313.15 K	1135.19 ± 0.94	540 ± 44
323.15 K	1128.57 ± 0.91	545 ± 44
333.15 K	1121.94 ± 0.89	547 ± 44
343.15 K	1115.36 ± 0.86	557 ± 45

CCn1cc[n+](C)c1.N#C[S-] [1-ethyl-3-methylimidazolium thiocyanate]
Details	mass density, [1] [kg/m3]	molar heat capacity at constant pressure, [2] [J/K/mol]
283.15 K	–	285 ± 23
293.15 K	1119.02 ± 0.88	287 ± 23
298.15 K	1115.96 ± 0.86	–
303.15 K	1112.91 ± 0.85	288 ± 23
313.15 K	1106.85 ± 0.83	290 ± 24
323.15 K	1100.85 ± 0.81	293 ± 24
333.15 K	1094.91 ± 0.79	296 ± 24
343.15 K	1089.06 ± 0.77	300 ± 24

CCCC[P+](CC)(CCCC)CCCC.CCOP(=O)([O-])OCC [tributylethylphosphonium diethylphosphate] + O
[3]
Details	excess molar enthalpy [kcal/mol]
313.11 K, x2 = 0.2619	-0.315 ± 0.0129
313.11 K, x2 = 0.2622	-0.318 ± 0.0129
313.11 K, x2 = 0.5134	-0.619 ± 0.0239
313.11 K, x2 = 0.5174	-0.624 ± 0.0263
313.11 K, x2 = 0.762	-0.696 ± 0.0287
313.11 K, x2 = 0.7628	-0.696 ± 0.0287
333.11 K, x2 = 0.2606	-0.284 ± 0.0115
333.11 K, x2 = 0.2633	-0.289 ± 0.0117
333.11 K, x2 = 0.5116	-0.552 ± 0.0225
333.11 K, x2 = 0.5118	-0.554 ± 0.0225
333.11 K, x2 = 0.7594	-0.619 ± 0.0239
333.11 K, x2 = 0.7601	-0.621 ± 0.0263
348.11 K, x2 = 0.2623	-0.27 ± 0.011
348.11 K, x2 = 0.2642	-0.272 ± 0.011
348.11 K, x2 = 0.5185	-0.511 ± 0.0208
348.11 K, x2 = 0.5213	-0.514 ± 0.0208
348.11 K, x2 = 0.7613	-0.554 ± 0.0225
348.11 K, x2 = 0.7635	-0.554 ± 0.0225

CCCCCCn1cc[n+](C)c1.O=S(=O)([O-])C(F)(F)F [1-hexyl-3-methylimidazolium trifluoromethanesulfonate]
[2]
Details	molar heat capacity at constant pressure [J/K/mol]
283.15 K	484 ± 39
293.15 K	493 ± 40
303.15 K	500 ± 41
313.15 K	506 ± 41
323.15 K	513 ± 42
333.15 K	516 ± 42
343.15 K	522 ± 42

CCn1cc[n+](C)c1.O=S(=O)([O-])O [1-ethyl-3-methylimidazolium hydrogen sulfate]
Details	mass density, [1] [kg/m3]	molar heat capacity at constant pressure, [2] [J/K/mol]
283.15 K	–	290 ± 24
293.15 K	1369.28 ± 2.9	294 ± 24
298.15 K	1365.79 ± 2.9	–
303.15 K	1362.63 ± 2.9	297 ± 24
313.15 K	1356.27 ± 2.9	302 ± 25
323.15 K	1350.14 ± 2.8	306 ± 25
333.15 K	1344.38 ± 2.8	313 ± 25
343.15 K	1338.46 ± 2.8	324 ± 26

C[n+]1ccn(CCO)c1.O=C([O-])C(F)(F)F
Details	mass density, [1] [kg/m3]	molar heat capacity at constant pressure, [2] [J/K/mol]
283.15 K	–	362 ± 29
293.15 K	1370.39 ± 1.8	367 ± 30
298.15 K	1366.36 ± 1.8	–
303.15 K	1362.51 ± 1.8	371 ± 30
313.15 K	1354.8 ± 1.7	376 ± 31
323.15 K	1346.98 ± 1.7	381 ± 31
333.15 K	1339.46 ± 1.7	387 ± 31
343.15 K	1331.98 ± 1.7	394 ± 32

CCOP(=O)([O-])OCC.CCn1cc[n+](C)c1 [1-ethyl-3-methylimidazolium diethyl phosphate] + O
[3]
Details	excess molar enthalpy [kcal/mol]
313.13 K, x2 = 0.2497	-0.813 ± 0.0335
313.13 K, x2 = 0.2506	-0.815 ± 0.0335
313.13 K, x2 = 0.5025	-1.34 ± 0.055
313.13 K, x2 = 0.5036	-1.34 ± 0.055
313.13 K, x2 = 0.7514	-1.25 ± 0.0502
313.13 K, x2 = 0.7538	-1.25 ± 0.0502
333.13 K, x2 = 0.2456	-0.786 ± 0.0311
333.13 K, x2 = 0.2473	-0.786 ± 0.0311
333.13 K, x2 = 0.4977	-1.31 ± 0.0526
333.13 K, x2 = 0.508	-1.32 ± 0.055
333.13 K, x2 = 0.7491	-1.23 ± 0.0502
333.13 K, x2 = 0.7512	-1.22 ± 0.0502
348.12 K, x2 = 0.2452	-0.779 ± 0.0311
348.12 K, x2 = 0.2477	-0.796 ± 0.0335
348.12 K, x2 = 0.4992	-1.29 ± 0.0526
348.12 K, x2 = 0.4996	-1.29 ± 0.0526
348.12 K, x2 = 0.7481	-1.19 ± 0.0478
348.12 K, x2 = 0.7485	-1.18 ± 0.0478

CCCCCCn1cc[n+](C)c1.O=S(=O)([O-])C(F)(F)F [1-hexyl-3-methylimidazolium trifluoromethanesulfonate] + O
[3]
Details	excess molar enthalpy
313.12 K, x2 = 0.3964	0.325 ± 0.0131 kcal/mol
313.12 K, x2 = 0.3978	0.325 ± 0.0131 kcal/mol
313.12 K, x2 = 0.6294	0.387 ± 0.0158 kcal/mol
313.12 K, x2 = 0.6334	0.387 ± 0.0158 kcal/mol
313.12 K, x2 = 0.8633	0.174 kcal/mol and 0.172 kcal/mol
333.12 K, x2 = 0.3946	0.354 ± 0.0143 kcal/mol
333.12 K, x2 = 0.3993	0.359 ± 0.0146 kcal/mol
333.12 K, x2 = 0.6304	0.449 ± 0.0182 kcal/mol
333.12 K, x2 = 0.8633	0.239 ± 0.0098 kcal/mol
348.13 K, x2 = 0.3956	0.378 ± 0.0153 kcal/mol
348.13 K, x2 = 0.3977	0.382 ± 0.0155 kcal/mol
348.13 K, x2 = 0.6302	0.504 ± 0.0206 kcal/mol
348.13 K, x2 = 0.635	0.504 ± 0.0206 kcal/mol
348.13 K, x2 = 0.8633	0.289 ± 0.0117 kcal/mol
